Calls of active or inactive are those of the source. The rule behind the calls is not given here.

Test system in the first data set: not listed separately
Briefly: Selectivity index, ratio of IC50 for rat L6 cells to IC50 for amastigote stage of Trypanosoma cruzi Tulahuen C4 infected in rat L6 cells. The format is toxicity, cell-based. As to conditions: read-out: Ratio IC50.
Turning to `COc1ccc(N2CCN(CC(=O)Nc3ncc([N+](=O)[O-])s3)CC2)cc1`, the selectivity ratio was 14.

The subject of the next data set is Trypanosoma brucei. In words: Activity at recombinant His-tagged Trypanosoma brucei NTR assessed as oxidation of NADH/min/mg of protein after 5 mins by spectrophotometric analysis.
Settings: not given
As to `O=C(CN1CCN(C(c2ccccc2)c2ccc(Cl)cc2)CC1)Nc1ncc([N+](=O)[O-])s1` (centres undefined), the result was inactive. Still for that read-out and setting: the result for `O=C(CN1CCN(c2ccccn2)CC1)Nc1ncc([N+](=O)[O-])s1` reads “inactive”; that for `O=C(Nc1ncc([N+](=O)[O-])s1)c1ccc(-c2ccccc2)cc1`, “inactive”. For the molecule `O=C(CN1CCN(c2ccc(Cl)c(Cl)c2)CC1)Nc1ncc([N+](=O)[O-])s1`, the result was inactive. On to `O=C(COc1ccc(-c2ccccc2)cc1)Nc1ncc([N+](=O)[O-])s1`, for which the result was inactive. The same measure, in the same setting: the result for `O=C(CN1CCN(c2ccc(C(F)(F)F)cc2)CC1)Nc1ncc([N+](=O)[O-])s1` reads “Active”. On to `O=C(Cn1ccnc1[N+](=O)[O-])NCc1ccccc1`, for which the result was Active.

A further data set relates to Trypanosoma brucei brucei. In words: Antitrypanosomal activity against wild type bloodstream form of Trypanosoma brucei brucei assessed as inhibition of parasite growth after 3 days by resazurin assay. The conditions noted are these: 72 h. The format is functional, organism-based. For orientation: The colour change of resazurin is a common sign of viable cells or microbes.
By IC50 is commonly meant the concentration at which inhibition is half-maximal. Take `O=C(CN1CCN(c2ccccn2)CC1)Nc1ncc([N+](=O)[O-])s1`: the IC50 turned out to be 21.6 µM.

These data come from ChEMBL document CHEMBL3804781, “Antitrypanosomal activity of 5-nitro-2-aminothiazole-based compounds” (Eur J Med Chem, 2016).
